Results published in patent US12209142B2, “SARS-CoV-2 epitope-targeted peptide immunostimulants” (Institute for Systems Biology, priority 2020, dated 2025).
“And” between values parts separate entries of the source, which are not always exact repeats. Identical values can stand only once. Bridges are numbered along the chain shown (N, C = ends). Where no end group is shown, it is not given here. [ ]: non-standard residue; d: D form. Lys(N3) = [N-]=[N+]=NCCCC[C@H](N)C(=O)O; Pra = C#CC[C@H](N)C(=O)O

Columns and labels:
Format in all cases: cell-based, Klebsiella pneumoniae
[1] = system: K. pneumoniae cells (strain BAA 2146); assay: Flow cytometry of AR-PCC-driven opsonization by anti-DNP antibodies
[2] = system: K. pneumoniae cells, BAA 1705 and BAA 2146; assay: Whole-cell ELISA of anti-DNP recruitment to bacterial cell surfaces; settings: AR-PCC plus anti-DNP; cy(LLFFF)-DNP 5 or 10 μM, cy(HNGPT)-DNP 50 and 100 μM
Text: FIG. 12 is a plot of 450 nm absorbances obtained from a cell-based ELISA assay conducted on two strains of K. pneumoniae cells, BAA 1705 (black) and BAA 2146 (grey), that were either untreated or opsonized by EPIs (AR-PCCs) and/or antibodies. […] This establishes EPI-driven opsonization by cy(LLFFF)-DNP (SEQ ID NO:5). […] This indicates opsonization by cy(LLFFF)-DNP (SEQ ID NO:5) is specific and is driven by the ligand cy(LLFFF) (SEQ ID NO:5), rather than the Lys(DNP) moiety.
The protocol for detecting anti-DNP recruitment to bacterial cell surfaces is as follows. […] After washing, bacteria were incubated with HRP conjugated secondary antibody (Bio-Rad) at a dilution of 1:10,000 for 1 h at 37° C. Unbound antibody was washed off by using PBS-BSA and the cells were then developed by using TMB reagent. […] Anti-MrkA antibody was procured from Biorbyt (orb51318) and used at a concentration of 5 μg/mL, and K. pneumoniae antiserum was obtained from abcam (ab20947) and used at a concentration of 5 μg/mL.

[3] = system: K. pneumoniae cells (strain BAA 1705); assay: Gentamicin protection assay: phagocytosis and opsonophagocytic killing (OPK) by macrophages; settings: 1 h
Procedure: FIGS. 7A and 7B show a gentamicin protection assay that evaluates EPI-driven phagocytosis and opsonophagocytic killing (OPK) of K. pneumoniae cells by murine bone-marrow-derived macrophages. FIG. 7A is a flow diagram depicting the assay used to evaluate EPI-driven opsonophagocytic killing (OPK) of K. pneumoniae cells. Briefly, K. pneumoniae cells (strain BAA 1705) opsonized by EPIs (AR-PCCs) and anti-DNP antibodies were incubated with macrophages for 1 or 24 h. Macrophages were lysed, and the lysate was plated to obtain bacterial colonies that were subsequently counted. FIG. 7B is a plot of colony counts for various samples subjected to the OPK assay. […] All EPIs (AR-PCCs) were used at a 5 μM concentration, measurements were conducted in triplicate, and error bars reflect standard deviations. cy(LLFFA) is SEQ ID NO:11.
It also tested whether DNP-conjugated EPIs could promote the opsonophagocytic killing (OPK) of K. pneumoniae by macrophages. This was tested by using an OPK assay. Briefly, K. pneumoniae cells were treated with EPI and then anti-DNP antibody before being exposed to macrophages for either 6 or 24 hours. During this incubation period, macrophages that recognize K. pneumoniae cells will phagocytose them, and phagocytosed bacteria will remain viable for up to 6 hours, but within 24 hours are rendered inviable by OPK. Thus, macrophages were isolated after 6 and 24 hours of incubation with K. pneumoniae, lysed them, and plated and grew the lysate, which yielded bacterial colonies that reflect the phagocytosis (at 6 hrs) or OPK (at 24 hrs) of bacteria.
Given that cy(LLFFF)-DNP (SEQ ID NO:5) recruits antibodies to K. pneumoniae surfaces, it was expected that K. pneumoniae opsonized in this manner would be more susceptible to phagocytosis by macrophages. AR-PCC-driven phagocytosis and OPK were quantified by a gentamicin protection assay, as depicted in FIG. 7A. For this assay, K. pneumoniae cells (strain BAA 1705) were treated with cy(LLFFF)-DNP (SEQ ID NO:5), opsonized by anti-DNP antibodies, and then incubated with murine bone-marrow-derived macrophages (BMDMs). BMDMs were subsequently exposed to a solution containing gentamicin, to which K. pneumoniae strain BAA 1705 is susceptible, to kill any extracellular bacteria. Phagocytosed bacteria remain viable inside BMDMs for at least 1 h, yet are rendered inviable after 24 h by OPK (FIG. 13). Macrophages harvested at 1 h and 24 h were lysed and plated to generate bacterial colonies, which were enumerated to quantify phagocytosis and OPK.
Opsonophagocytic killing (OPK) assays. Klebsiella pneumoniae BAA1705 was treated with DNP-PCCs followed by incubation with anti-DNP antibody, as described above in the “Cell-Based ELISAs” section. These opsonized bacteria were then used to infect BMDMs at a multiplicity of infection of 50 for 0.5 h at 37° C. Bacteria were then washed by using RPMI 1640 Media and BMDMs were left in cell culture medium containing gentamicin (100 μg/ml). After 1 h and 24 h BMDMs were washed to remove gentamicin and intracellular bacteria were harvested by lysing BMDMs in RPMI media containing 0.2% Triton X 100. Bacterial CFUs were enumerated by plating onto LB agar. Bacterial counts at 1 h indicated the degree of opsonization while those at 24 h served as a measure of microbicidal activity of macrophages. For these measurements, anti-MrkA antibody and K. pneumoniae antiserum were used at dilutions of 5 μg/mL each.

Substance	fluorescence intensity of cells (predominantly) ([1]; AR-PCC at 50 μM plus Alexafluor 488 anti-DNP, strain BAA 2146)	450 nm absorbance, anti-DNP recruitment to cells [2]	fluorescence of cells (opsonization by anti-DNP) ([1]; cy(LLFFF)-DNP 1 or 5 μM, cy(HNGPT) control 50 μM, plus fluorescent anti-DNP)	phagocytosis at 1 h, AR-PCC only (no anti-DNP) ([3]; AR-PCC 5 μM)	colony counts at 1 h, AR-PCC plus anti-DNP antibody ([3]; AR-PCC 5 μM, murine BMDMs)	level of phagocytosis lower than that induced by K. pneumoniae antiserum and anti-MrkA treatment ([3]; plus anti-DNP)
cy(HNGPT)-DNP: control AR-PCC, DNP-conjugated dummy ligand ([Lys(N3)]HNGPT[Pra]; triazole 1-7; also: DNP-conjugated) [reference compound]	< 1.0×10^1	Much smaller signals	–	–	–	–
cy(LLFFF)-DNP: cy(LLFFF) tagged with a DNP-modified lysine residue; lead AR-PCC ([Pra]LLFFF[Lys(N3)]; bridge 1-7; not fully specified (bridges); printed as cy(LLFFF)-DNP; also: tagged with a DNP-modified lysine residue, position not given here)	–	much larger signal	much higher fluorescence	None of these treatments elicited phagocytosis above basal levels	89,000 CFU and 85,000 CFU	about 15%
